Values of other authors in paper PMC4894568 (PLoS ONE, 2016).

What was measured:
Influenza A virus [1] = conditions: mouse, in vivo
Influenza A virus [2] = system: Influenza A virus

In the case of LL-37, the “infection with Influenza A virus in an infection model” value (Influenza A virus [1]) is listed as “prevented or inhibited the infection” and the “infectivity of Influenza A virus” value (Influenza A virus [2]) is listed as “influenced the infectivity”.
